Source: patent US10604554B2, “Double-acylated GLP-1 derivatives” (Novo Nordisk A/S, priority 2012, dated 2020)

Assays:
[1] = tested on: Landrace Yorkshire Duroc (LYD) pigs; experiment: Pharmacodynamic (PD) study in pigs, food intake; assay type: in vivo, pig; conditions: single s.c. dose 3.0 nmol/kg; for PD in pig, food intake (% of vehicle) for hours 0-24: 0-24 h; for PD in pig, food intake (% of vehicle) for hours 24-48: 24-48 h; for reduction in food intake (in words): versus vehicle
Method: The purpose of this experiment was to investigate the effect of a couple of Example compounds on food intake in pigs. This was done in a pharmacodynamic (PD) study as described below, in which food intake was measured from 1 to 4 days after administration of a single dose of the GLP-1 derivative, as compared to a vehicle-treated control group.
Female Landrace Yorkshire Duroc (LYD) pigs, approximately 3 months of age, weighing approximately 30-35 kg were used (n=3-4 per group). The animals were housed in a group for approximately 1 week during acclimatisation to the animal facilities. During the experimental period the animals were placed in individual pens at least 2 days before dosing and during the entire experiment for measurement of individual food intake. The animals were fed ad libitum with pig fodder (Svinefoder Danish Top) at all times both during the acclimatisation and the experimental period. Food intake was monitored on line by logging the weight of fodder every 15 minutes. The system used was Mpigwin (Ellegaard Systems, Faaborg, Denmark).
The phosphate buffer serves as vehicle. Animals are dosed with a single subcutaneous dose of the GLP-1 derivative or vehicle (dose volume 0.025 ml/kg) on the morning of day 1, and food intake is measured for 1 day after dosing. On the last day of each study, 1-4 days after dosing, a blood sample for measurement of plasma exposure of the GLP-1 derivative is taken from the heart in anaesthetised animals. The animals are thereafter euthanised with an intra-cardial overdose of pentobarbitone.
Food intake is calculated as mean±SEM food intake in 24 h intervals (0-24 h, 24-48 h, and 48-72 h). In Table 6 below the food intake is indicated as percentage of the food intake of the vehicle group in the same time interval (dosage 3.0 nmol/kg).
Statistical comparisons of the food intake in the 24 h intervals in the vehicle vs. GLP-1 derivative group are done using two-way-ANOVA repeated measures, followed by Bonferroni post-test.

in vivo = conditions: male, Sprague Dawley, rat, iv

Row | Compound | PD in pig, food intake (% of vehicle) for hours 0-24 [1] | PD in pig, food intake (% of vehicle) for hours 24-48 [1] | reduction in food intake (in words) [1] | half-life (in vivo) [h] | PD in pig, food intake (% of vehicle) for hours 48-72 ([1]; 48-72 h)
1 | CC[C@H](C)[C@H](NC(=O)[C@H](Cc1ccccc1)NC(=O)[C@H](CCC(=O)O)NC(=O)[C@H](CCCCNC(=O)[C@@H](N)CCCCNC(=O)[C@@H](N)CCCCNC(=O)CC[C@H](NC(=O)CCCCCCCCCCCOc1ccc(C(=O)O)cc1)C(=O)O)NC(=O)[C@H](C)NC(=O)[C@H](C)NC(=O)[C@H](CCC(N)=O)NC(=O)CNC(=O)[C@H](CCC(=O)O)NC(=O)[C@H](CC(C)C)NC(=O)[C@H](Cc1ccc(O)cc1)NC(=O)[C@H](CO)NC(=O)[C@H](CO)NC(=O)[C@@H](NC(=O)[C@H](CC(=O)O)NC(=O)[C@H](CO)NC(=O)[C@@H](NC(=O)[C@H](Cc1ccccc1)NC(=O)[C@@H](NC(=O)CNC(=O)[C@H](CCC(=O)O)NC(=O)C(C)(C)NC(=O)[C@@H](N)Cc1c[nH]cn1)[C@@H](C)O)[C@@H](C)O)C(C)C)C(=O)N[C@@H](C)C(=O)N[C@@H](Cc1c[nH]c2ccccc12)C(=O)N[C@@H](CC(C)C)C(=O)N[C@H](C(=O)N[C@@H](CCCNC(=N)N)C(=O)NCC(=O)N[C@@H](CCCNC(=N)N)C(=O)N[C@@H](CCCCNC(=O)[C@@H](N)CCCCNC(=O)[C@@H](N)CCCCNC(=O)CC[C@H](NC(=O)CCCCCCCCCCCOc1ccc(C(=O)O)cc1)C(=O)O)C(=O)O)C(C)C [Example 7, N^ε26-[(2S)-2-amino-6-[[(2S)-2-amino-6-[[(4S)-4-carboxy-4-[12-(4-carboxyphenoxy)dodecanoylamino]butanoyl]amino]hexanoyl]amino]hexanoyl], N^ε37-[(2S)-2-amino-6-[[(2S)-2-amino-6-[[(4S)-4-carboxy-4-[12-(4-carboxyphenoxy)dodecanoylamino]butanoyl]amino]hexanoyl]amino]hexanoyl]-[Aib^8,Arg^34,Lys^37]-GLP-1-(7-37)-peptide] | 14 % of vehicle | 18 % of vehicle | very nice reduction in food intake | – | –
2 | CC[C@H](C)[C@H](NC(=O)[C@H](Cc1ccccc1)NC(=O)[C@H](CCC(=O)O)NC(=O)[C@H](CCCCNC(=O)[C@@H](N)CCCCNC(=O)[C@@H](N)CCCCNC(=O)CC[C@H](NC(=O)CC[C@H](NC(=O)CCCCCCCCCCCCCCC(=O)O)C(=O)O)C(=O)O)NC(=O)[C@H](C)NC(=O)[C@H](C)NC(=O)[C@H](CCC(N)=O)NC(=O)CNC(=O)[C@H](CCC(=O)O)NC(=O)[C@H](CC(C)C)NC(=O)[C@H](Cc1ccc(O)cc1)NC(=O)[C@H](CO)NC(=O)[C@H](CO)NC(=O)[C@@H](NC(=O)[C@H](CC(=O)O)NC(=O)[C@H](CO)NC(=O)[C@@H](NC(=O)[C@H](Cc1ccccc1)NC(=O)[C@@H](NC(=O)CNC(=O)[C@H](CCC(=O)O)NC(=O)C(C)(C)NC(=O)[C@@H](N)Cc1c[nH]cn1)[C@@H](C)O)[C@@H](C)O)C(C)C)C(=O)N[C@@H](C)C(=O)N[C@@H](Cc1c[nH]c2ccccc12)C(=O)N[C@@H](CC(C)C)C(=O)N[C@H](C(=O)N[C@@H](CCCNC(=N)N)C(=O)NCC(=O)N[C@@H](CCCNC(=N)N)C(=O)N[C@@H](CCCCNC(=O)[C@@H](N)CCCCNC(=O)[C@@H](N)CCCCNC(=O)CC[C@H](NC(=O)CC[C@H](NC(=O)CCCCCCCCCCCCCCC(=O)O)C(=O)O)C(=O)O)C(=O)O)C(C)C [Example 12, N^ε26-[(2S)-2-amino-6-[[(2S)-2-amino-6-[[(4S)-4-carboxy-4-[[(4S)-4-carboxy-4-(15-carboxypentadecanoylamino)butanoyl]amino]butanoyl]amino]hexanoyl]amino]hexanoyl], N^ε37-[(2S)-2-amino-6-[[(2S)-2-amino-6-[[(4S)-4-carboxy-4-[[(4S)-4-carboxy-4-(15-carboxypentadecanoylamino)butanoyl]amino]butanoyl]amino]hexanoyl]amino]hexanoyl]-[Aib^8,Arg^34, Lys^37]-GLP-1-(7-37)-peptide] | – | – | – | 28 | –
3 | CC[C@H](C)[C@H](NC(=O)[C@H](Cc1ccccc1)NC(=O)[C@H](CCC(=O)O)NC(=O)[C@H](CCCCNC(=O)[C@@H](N)CCCCNC(=O)[C@@H](N)CCCCNC(=O)CC[C@H](NC(=O)CC[C@H](NC(=O)CCCCCCCCCCCOc1ccc(C(=O)O)cc1)C(=O)O)C(=O)O)NC(=O)[C@H](C)NC(=O)[C@H](C)NC(=O)[C@H](CCC(N)=O)NC(=O)CNC(=O)[C@H](CCC(=O)O)NC(=O)[C@H](CC(C)C)NC(=O)[C@H](Cc1ccc(O)cc1)NC(=O)[C@H](CO)NC(=O)[C@H](CO)NC(=O)[C@@H](NC(=O)[C@H](CC(=O)O)NC(=O)[C@H](CO)NC(=O)[C@@H](NC(=O)[C@H](Cc1ccccc1)NC(=O)[C@@H](NC(=O)CNC(=O)[C@H](CCC(=O)O)NC(=O)C(C)(C)NC(=O)[C@@H](N)Cc1c[nH]cn1)[C@@H](C)O)[C@@H](C)O)C(C)C)C(=O)N[C@@H](C)C(=O)N[C@@H](Cc1c[nH]c2ccccc12)C(=O)N[C@@H](CC(C)C)C(=O)N[C@H](C(=O)N[C@@H](CCCNC(=N)N)C(=O)NCC(=O)N[C@@H](CCCNC(=N)N)C(=O)N[C@@H](CCCCNC(=O)[C@@H](N)CCCCNC(=O)[C@@H](N)CCCCNC(=O)CC[C@H](NC(=O)CC[C@H](NC(=O)CCCCCCCCCCCOc1ccc(C(=O)O)cc1)C(=O)O)C(=O)O)C(=O)O)C(C)C [Example 16, N^ε26-[(2S)-2-amino-6-[[(2S)-2-amino-6-[[(4S)-4-carboxy-4-[[(4S)-4-carboxy-4-[12-(4-carboxyphenoxy)dodecanoylamino]butanoyl]amino]butanoyl]amino]hexanoyl]amino]hexanoyl], N^ε37-[(2S)-2-amino-6-[[(2S)-2-amino-6-[[(4S)-4-carboxy-4-[[(4S)-4-carboxy-4-[12-(4-carboxyphenoxy)dodecanoylamino]butanoyl]amino]butanoyl]amino]hexanoyl]amino]hexanoyl]-[Aib^8,Arg^34,Lys^37]-GLP-1-(7-37)-peptide] | 33 % of vehicle | 43 % of vehicle | – | – | –
4 | CC[C@H](C)[C@H](NC(=O)[C@H](Cc1ccccc1)NC(=O)[C@H](CCC(=O)O)NC(=O)[C@H](CCCCNC(=O)[C@@H](N)CCCCNC(=O)[C@@H](N)CCCCNC(=O)CC[C@H](NC(=O)CCCCCCCNC(=O)CCCCCCCCCOc1ccc(C(=O)O)cc1)C(=O)O)NC(=O)[C@H](C)NC(=O)[C@H](C)NC(=O)[C@H](CCC(N)=O)NC(=O)CNC(=O)[C@H](CCC(=O)O)NC(=O)[C@H](CC(C)C)NC(=O)[C@H](Cc1ccc(O)cc1)NC(=O)[C@H](CO)NC(=O)[C@H](CO)NC(=O)[C@@H](NC(=O)[C@H](CC(=O)O)NC(=O)[C@H](CO)NC(=O)[C@@H](NC(=O)[C@H](Cc1ccccc1)NC(=O)[C@@H](NC(=O)CNC(=O)[C@H](CCC(=O)O)NC(=O)C(C)(C)NC(=O)[C@@H](N)Cc1c[nH]cn1)[C@@H](C)O)[C@@H](C)O)C(C)C)C(=O)N[C@@H](C)C(=O)N[C@@H](Cc1c[nH]c2ccccc12)C(=O)N[C@@H](CC(C)C)C(=O)N[C@H](C(=O)N[C@@H](CCCNC(=N)N)C(=O)NCC(=O)N[C@@H](CCCNC(=N)N)C(=O)N[C@@H](CCCCNC(=O)[C@@H](N)CCCCNC(=O)[C@@H](N)CCCCNC(=O)CC[C@H](NC(=O)CCCCCCCNC(=O)CCCCCCCCCOc1ccc(C(=O)O)cc1)C(=O)O)C(=O)O)C(C)C [Example 26, N^ε26-[(2S)-2-amino-6-[[(2S)-2-amino-6-[[(4S)-4-carboxy-4-[8-[10-(4-carboxyphenoxy)decanoylamino]octanoylamino]butanoyl]amino]hexanoyl]amino]hexanoyl], N^ε37-[(2S)-2-amino-6-[[(2S)-2-amino-6-[[(4S)-4-carboxy-4-[8-[10-(4-carboxyphenoxy)decanoylamino]octanoylamino]butanoyl]amino]hexanoyl]amino]hexanoyl]-[Aib^8,Arg^34,Lys^37]-GLP-1-(7-37)-peptide] | 10 % of vehicle | 26 % of vehicle | very nice reduction in food intake | – | 52 % of vehicle
